Measurements reported in paper PMC6273079, “Purification of Flavonoids from Chinese Bayberry (Morella rubra Sieb. et Zucc.) Fruit Extracts and α-Glucosidase Inhibitory Activities of Different Fractionations” (Molecules, 2016).

What was measured:
[1] = DPPH radical scavenging activity; details: samples from BQ pulp; 1 h reaction, 515 nm; mean ± SD, n = 3
Procedure: DPPH radical scavenging activity was measured according to Brand-Williams, Cuvelier, and Berset with modifications. The reaction for scavenging DPPH radical was carried out by adding 2 μL sample to 198 μL 25 μg/mL DPPH solution at room temperature. Absorbance at 515 nm before (A0) and after (A1) the reaction (1 h) was recorded using a micro-plate reader (BioTech, Synergy H1, Winooski, VT, USA). The radical scavenging activity was calculated as: Scavenging rate (%) = (A0 − A1)/A0 × 100 (1)

[2] = ABTS radical scavenging activity; details: samples from BQ pulp; 6 min, 734 nm; mean ± SD, n = 3
Procedure: ABTS assay was carried out using a spectrophotometer as reported. The ABTS radical cation was generated by reacting 7 mmol/L ABTS with 2.45 mmol/L potassium persulfate, and the mixture was allowed to stand in the dark at room temperature for 16 h before use. Before analysis, the ABTS solution was diluted with ethanol to an absorbance of 0.70 ± 0.05 at a wavelength of 734 nm. The absorbance at 734 nm was recorded for 6 min after mixing of 0.1 mL of the tested samples dissolved in ethanol with 3.9 mL of ABTS solution. The radical scavenging activity was calculated as the Equation (1) above.

| Compound | IC50 of DPPH scavenging activity [1] | IC50 of ABTS radical scavenging activity [2] |
| --- | --- | --- |
| OC[C@H]1O[C@@H](Oc2cc3c(O)cc(O)cc3[o+]c2-c2ccc(O)c(O)c2)[C@H](O)[C@@H](O)[C@@H]1O [C3G, cyanidin-3-O-glucoside] | 3.22 µg/mL | 4.19 ± 0.16 µg/mL |
| O=c1c(O[C@@H]2O[C@H](CO)[C@H](O)[C@H](O)[C@H]2O)c(-c2ccc(O)c(O)c2)oc2cc(O)cc(O)c12 [Q3Gal, quercetin-3-O-galactoside] | 2.43 µg/mL | 2.09 ± 0.01 µg/mL |
| quercetin-3-O-rhamnoside [Q3R] | 2.55 µg/mL | 2.28 ± 0.05 µg/mL |
| C[C@@H]1O[C@@H](Oc2c(-c3cc(O)c(O)c(O)c3)oc3cc(O)cc(O)c3c2=O)[C@H](O)[C@H](O)[C@H]1O [M3R, myricetin-3-O-rhamnoside] | 2.81 µg/mL | 3.24 ± 0.02 µg/mL |
